Assays:
Plasmopara viticola = assay: Test Example G: Downy mildew on vine; settings: Downy mildew on vine; 250 ppm spray, 7 to 10 days after inoculation
[1] = test system: Blumeria graminis f. sp. hordei; assay: Test Example D: Powdery mildew on barley; settings: Powdery mildew on barley; control value class
Botrytis cinerea = assay: Test Example B: Gray mold on tomato; settings: Gray mold on tomato; control value class
Method: Seeds of a test plant (tomato variety: Oogata Fukuju) were planted and cultivated until three to five first leaves (true leaves) appeared. In the test, the inventive compounds were dissolved into dimethyl sulfoxide-methanol mixture solution (volume ratio: 9/1), and the resultant solutions were diluted with well water to a concentration of 250 ppm to obtain the drug solutions. The drug solutions were sprayed to the test plant (2.5 ml/pot). After the drug solutions dried, a conidial suspension (4-8×10^5 conidia/ml) of Botrytis cinerea was inoculated to the plant by spraying. After the inoculation, the plant was kept in a mist chamber at room temperature of 20 to 23° C. for about 48 hours to promote the onset of disease. The degrees of disease development were investigated 2 to 3 days after the inoculation, and the effectiveness of the drug solutions was evaluated.
(§1) In Test Examples described above, the degrees of disease development were evaluated in increments of 0.05 from 0 (as no incidence of disease) to 3 (as the degree of disease development in an untreated plant group). Further, control values were calculated using the following equation based on the degree of disease development.
(§2) n=Degree of disease development in each treated group
(§3) In the table, H: more than 50% control value, L: 50% or less control value, and nt: not tested.

Puccinia recondita = assay: Test Example E: Brown rust on wheat; type: in vivo; settings: Brown rust on wheat; control value class
Magnaporthe grisea = assay: whole plant or invertebrate; type: in vivo; settings: Blast on rice; control value class
Alternaia brassicicola = assay: Test Example C: Alternaria sooty spot on cabbage; type: in vivo; settings: Alternaria sooty spot on cabbage; control value class
Source text: Seeds of a test plant (cabbage variety: Shikidori) were planted and cultivated until the cotyledons extended.
<Control Value> Control value=100{1−(n/3)}

Phytophthora infestans = assay: whole plant or invertebrate; type: in vivo; settings: Late blight on tomato; control value class
[2] = test system: Colletotrichum orbiculare; assay: Test Example H: Anthracnose on cucumber; settings: Anthracnose on cucumber; 250 ppm spray, 6 to 10 days after inoculation
Method: Seeds of a test plant (cucumber variety: Sagami Hanjiro) were planted and cultivated until the first leaf appeared. In the test, the inventive compounds were dissolved into dimethyl sulfoxide-methanol mixture solution (volume ratio: 9/1), and the resultant solutions were diluted with well water to a concentration of 250 ppm to obtain the drug solutions. The drug solutions were sprayed to the test plant (2.5 ml/pot). After the drug solutions dried, a conidial suspension (2-4×10^5 conidia/ml) of Colletotrichum orbiculare was inoculated to the plant by spraying. After the inoculation, the plant was kept in a mist chamber at room temperature of 20 to 23° C. for about 24 hours to promote the onset of disease. The degrees of disease development were investigated 6 to 10 days after the inoculation, and the effectiveness of the drug solutions was evaluated.
as §1, §2, §3

SMILES | Test G control value (Plasmopara viticola) | Test D control value [1] | Test B control value (Botrytis cinerea) | Test E control value (Puccinia recondita) | Test A control value (Magnaporthe grisea) | Test C control value (Alternaia brassicicola) | Test F control value (Phytophthora infestans) | Test H control value [2]
C#CC(=O)c1cc(Cl)c(=O)n(CC)c1-c1c(F)cc(F)cc1F [compound 284] | H (more than 50% control value) | H (more than 50% control value) | H (more than 50% control value) | H (more than 50% control value) | L (50% or less control value) | H (more than 50% control value) | H (more than 50% control value) | H (more than 50% control value)
C#CC(OC)c1cc(Cl)c(=O)n(CC)c1-c1c(F)cc(F)cc1F (stereo not shown) [compound 285] | L (50% or less control value) | H (more than 50% control value) | H (more than 50% control value) | H (more than 50% control value) | H (more than 50% control value) | H (more than 50% control value) | L (50% or less control value) | H (more than 50% control value)
C#CC(F)c1cc(Cl)c(=O)n(CC)c1-c1c(F)cc(F)cc1F (stereo not shown) [compound 286] | L (50% or less control value) | L (50% or less control value) | H (more than 50% control value) | H (more than 50% control value) | L (50% or less control value) | H (more than 50% control value) | L (50% or less control value) | H (more than 50% control value)
CCn1c(-c2ccc(OC)cc2)c(C=O)cc(Cl)c1=O [compound 287] | L (50% or less control value) | L (50% or less control value) | L (50% or less control value) | L (50% or less control value) | L (50% or less control value) | H (more than 50% control value) | L (50% or less control value) | L (50% or less control value)
CCn1c(-c2ccc(C#N)cc2)c(C=O)cc(Cl)c1=O [compound 288] | L (50% or less control value) | L (50% or less control value) | L (50% or less control value) | L (50% or less control value) | L (50% or less control value) | H (more than 50% control value) | L (50% or less control value) | L (50% or less control value)
CCn1c(-c2ccc(F)cc2)c(C=O)cc(Cl)c1=O [compound 290] | L (50% or less control value) | L (50% or less control value) | L (50% or less control value) | L (50% or less control value) | L (50% or less control value) | H (more than 50% control value) | H (more than 50% control value) | L (50% or less control value)
CCCCCCc1ccc(=O)n(CC)c1-c1ccc(F)cc1Cl [compound 291] | L (50% or less control value) | H (more than 50% control value) | L (50% or less control value) | H (more than 50% control value) | L (50% or less control value) | L (50% or less control value) | L (50% or less control value) | H (more than 50% control value)
CCCCCCc1cc(Cl)c(=O)n(CC)c1-c1ccc(F)cc1Cl [compound 292] | L (50% or less control value) | H (more than 50% control value) | H (more than 50% control value) | L (50% or less control value) | L (50% or less control value) | H (more than 50% control value) | L (50% or less control value) | L (50% or less control value)
CCCCCCc1cc(Br)c(=O)n(CC)c1-c1ccc(F)cc1Cl [compound 293] | L (50% or less control value) | H (more than 50% control value) | L (50% or less control value) | L (50% or less control value) | L (50% or less control value) | H (more than 50% control value) | L (50% or less control value) | L (50% or less control value)
CCn1c(-c2ccc(F)cc2Cl)c(C=O)cc(Cl)c1=O [compound 294] | H (more than 50% control value) | L (50% or less control value) | H (more than 50% control value) | H (more than 50% control value) | L (50% or less control value) | H (more than 50% control value) | L (50% or less control value) | L (50% or less control value)
C=Cc1cc(Cl)c(=O)n(CC)c1-c1ccc(F)cc1Cl [compound 295] | L (50% or less control value) | H (more than 50% control value) | H (more than 50% control value) | H (more than 50% control value) | L (50% or less control value) | H (more than 50% control value) | H (more than 50% control value) | L (50% or less control value)
CC(C)CC1=C(c2c(F)cc(F)cc2F)N(CC(F)F)C(=O)CC1 [compound 296] | L (50% or less control value) | L (50% or less control value) | L (50% or less control value) | H (more than 50% control value) | L (50% or less control value) | H (more than 50% control value) | L (50% or less control value) | L (50% or less control value)
CC(C)Cc1ccc(=O)n(CC(F)F)c1-c1c(F)cc(F)cc1F [compound 297] | H (more than 50% control value) | H (more than 50% control value) | H (more than 50% control value) | H (more than 50% control value) | L (50% or less control value) | H (more than 50% control value) | L (50% or less control value) | L (50% or less control value)
CCn1c(-c2ccc(F)cc2Cl)c(CC=O)cc(Cl)c1=O [compound 298] | L (50% or less control value) | L (50% or less control value) | L (50% or less control value) | L (50% or less control value) | L (50% or less control value) | H (more than 50% control value) | L (50% or less control value) | H (more than 50% control value)
